Results from PubChem BioAssay (NCI).
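Values below derive from 48-hour exposures of cells grown in 96-well plates, with endpoints linearly interpolated between the two concentrations bracketing the appropriate inhibition level. The concentration for full growth arrest is given as TGI.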

Key:
Experiment in all cases: growth of human tumour cells (NCI), 48 h
786-0 renal = test system: 786-0 renal
A498 renal = test system: A498 renal
ACHN renal = test system: ACHN renal
BT-549 breast = test system: BT-549 breast
CAKI-1 renal = test system: CAKI-1 renal
CCRF-CEM leukemia = test system: CCRF-CEM leukemia
COLO 205 colon = test system: COLO 205 colon
DU-145 prostate = test system: DU-145 prostate
EKVX NSCLC = test system: EKVX NSCLC
HCT-116 colon = test system: HCT-116 colon
HCT-15 colon = test system: HCT-15 colon
HL-60(TB) leukemia = test system: HL-60(TB) leukemia
HOP-92 NSCLC = test system: HOP-92 NSCLC
HS 578T breast = test system: HS 578T breast
HT29 colon = test system: HT29 colon
IGROV1 ovarian = test system: IGROV1 ovarian
KM12 colon = test system: KM12 colon
LOX IMVI melanoma = test system: LOX IMVI melanoma
MCF7 breast = test system: MCF7 breast
MDA-MB-231 breast = test system: MDA-MB-231 breast
MDA-MB-435 = test system: MDA-MB-435
MDA-N = test system: MDA-N
MOLT-4 leukemia = test system: MOLT-4 leukemia
OVCAR-8 ovarian = test system: OVCAR-8 ovarian
RPMI-8226 leukemia = test system: RPMI-8226 leukemia
RXF 393 renal = test system: RXF 393 renal
SF-268 CNS = test system: SF-268 CNS
SK-MEL-28 melanoma = test system: SK-MEL-28 melanoma
SK-MEL-5 melanoma = test system: SK-MEL-5 melanoma
SK-OV-3 ovarian = test system: SK-OV-3 ovarian
SN12C renal = test system: SN12C renal
SNB-19 CNS = test system: SNB-19 CNS
SNB-75 CNS = test system: SNB-75 CNS
SW-620 colon = test system: SW-620 colon
T-47D breast = test system: T-47D breast
TK-10 renal = test system: TK-10 renal
U251 CNS = test system: U251 CNS
UACC-257 melanoma = test system: UACC-257 melanoma
UACC-62 melanoma = test system: UACC-62 melanoma
UO-31 renal = test system: UO-31 renal
A549 NSCLC = test system: A549 NSCLC
HCC-2998 colon = test system: HCC-2998 colon
HOP-62 NSCLC = test system: HOP-62 NSCLC
K-562 leukemia = test system: K-562 leukemia
MALME-3M melanoma = test system: MALME-3M melanoma
NCI-H23 lung = test system: NCI-H23 lung
NCI-H460 lung = test system: NCI-H460 lung
NCI-H522 lung = test system: NCI-H522 lung
NCI/ADR-RES ovarian = test system: NCI/ADR-RES ovarian
OVCAR-3 ovarian = test system: OVCAR-3 ovarian
OVCAR-5 ovarian = test system: OVCAR-5 ovarian
PC-3 prostate = test system: PC-3 prostate
SF-295 CNS = test system: SF-295 CNS
SF-539 CNS = test system: SF-539 CNS
SK-MEL-2 melanoma = test system: SK-MEL-2 melanoma
SR leukemia = test system: SR leukemia
M14 melanoma = test system: M14 melanoma
NCI-H226 lung = test system: NCI-H226 lung
OVCAR-4 ovarian = test system: OVCAR-4 ovarian

Measured: TGI

CNc1nncc2[nH]cnc12
not listed: A549 NSCLC | HCC-2998 colon | HOP-62 NSCLC | K-562 leukemia | MALME-3M melanoma | NCI-H23 lung | NCI-H460 lung | NCI-H522 lung | NCI/ADR-RES ovarian | OVCAR-3 ovarian | OVCAR-5 ovarian | PC-3 prostate | SF-295 CNS | SF-539 CNS | SK-MEL-2 melanoma | SR leukemia | M14 melanoma | NCI-H226 lung | OVCAR-4 ovarian
> 100 µM: all other assays above

CNc1nc(N)nc(Nc2ccc(I)cc2)c1N=O
not listed: A498 renal | CAKI-1 renal | HOP-92 NSCLC | SK-OV-3 ovarian | T-47D breast | U251 CNS | M14 melanoma | NCI-H226 lung | OVCAR-4 ovarian
> 100 µM: all other assays above

CC(C(=O)COCc1ccccc1)P1(=O)OC(C)(C)CN1C(C)(C)C (stereo not given)
not listed: BT-549 breast | IGROV1 ovarian | MDA-MB-231 breast | SK-MEL-28 melanoma | SNB-19 CNS | U251 CNS | K-562 leukemia | MALME-3M melanoma | PC-3 prostate | SK-MEL-2 melanoma | SR leukemia
> 100 µM: all other assays above

CC(C)(C)N=C(N)NC#N
not listed: A498 renal | KM12 colon | T-47D breast | NCI-H522 lung | OVCAR-3 ovarian | SF-295 CNS | NCI-H226 lung
> 100 µM: all other assays above
